Measured values as given in US11717536B2, “Treatment for periodontitis” (THE UNIVERSITY OF MELBOURNE, priority 2017, dated 2023).
Values joined by “and” are separate entries in the source; they are usually repeats but may differ in a detail not shown here. Equal values may be shown once. Marks after values point to notes of the source that are not given here.

Columns and labels:
[1] = system: Actinomyces naeslundii (NCTC 10301); assay: Six species polymicrobial biofilm in constant-depth film fermenter, species composition: A. naeslundii; assay type: cell-based
Protocol: (§1) To model supragingival plaque six representative oral bacterial species, Streptococcus sanguinis (NCTC 7863), Streptococcus mutans Ingbritt, Actinomyces naeslundii (NCTC 10301), Veillonella parvula (ATCC 17745), Lactobacillus casei (NCDO 161) and Fusobacterium nucleatum (ATCC 10953) (Table 5) were cultured as a polymicrobial biofilm on a human enamel substratum in a constant-depth film fermenter (CDFF; Cardiff University, UK). The CDFF was housed in a 37° C. incubator under anaerobic conditions which were maintained by a constant flow of 5% CO2 in N2 at 1 L/h. The CDFF contained 15 removable polytetrafluoroethylene (PTFE) pans on a circular platform that was rotated at a constant speed of three rpm. The biofilms were grown on three enamel blocks (see below) in each PTFE pan using an artificial saliva medium (ASM, 2.5 g/L mucin type II (porcine, gastric, Sigma), 2.0 g/L bacteriological peptone (Oxoid), 2.0 g/L tryptone (Oxoid), 1.0 g/L yeast extract (Oxoid), 0.35 g/L NaCl, 0.2 g/L KCl, 0.2 mg/L vitamin K, 1 mg/L haemin and 0.1 g/L cysteine hydrochloride) at a constant flow rate of 30 mL/h. Prior to inoculation, the CDFF pan surfaces were conditioned for 24 h with ASM at a flow rate of 10 mL/h (McBain et al (2003) J Appl Microbiol. 94(4):655-66). In order to mimic in vivo bacterial growth conditions in the oral cavity with dietary sugar intake and to provide a high cariogenic challenge, a 1% (w/v) sucrose solution in ASM was pumped into the CDFF four times a day at four hourly intervals with a flow rate of 30 mL/h for 10 min.
(§2) Three treatments were applied to the polymicrobial biofilms: 290 ppm fluoride with 220 ppm fluoride as SnF2 and 70 ppm fluoride as NaF (referred to as SnF2), 2% CPP-ACP and 2% CPP-ACP-SnF2. […]
(§3) For each timepoint, DNA was extracted separately from 8-9 enamel blocks using PowerLyzer® PowerSoil® DNA Isolation Kits (MoBio Laboratories) following the manufacturers “Vacuum Protocol” with a Precellys® bead homogeniser (Bertin Technologies). Samples were quantified using a Qubit™ dsDNA HS assay kit (Life Technologies) before being stored at −80° C. […]

[2] = system: Lactobacillus casei (NCDO 161); assay: Six species polymicrobial biofilm in constant-depth film fermenter, species composition: L. casei; assay type: cell-based; settings: 19 days; mean ± standard deviation; n = 5-21
Protocol: as §1
(§4) Three treatments were applied to the polymicrobial biofilms: 290 ppm fluoride with 220 ppm fluoride as SnF2 and 70 ppm fluoride as NaF (referred to as SnF2), 2% CPP-ACP and 2% CPP-ACP-SnF2. These treatments were compared with the control in which the test solution was replaced with ASM. Each treatment was applied using two 10 min pulses of the test solution in ASM with a flow rate of 30 mL/h. The first pulse started 30 min prior to the first sucrose pulse of the morning and the second started 3 h 30 min after the final sucrose pulse of the day.
(§5) On day 6, 12 and 19 after inoculation four pans were removed aseptically from the CDFF and replaced with blank sterile pans. Enamel blocks from the pans were removed for bacterial enumeration and transverse microradiography.
(§6) Planktonic and loosely attached bacterial cells were firstly removed from the enamel blocks by light washing with 100 μL ASM. […]
as §3

[3] = system: enamel substratum of the polymicrobial biofilm caries model; assay: Enamel subsurface demineralization in the polymicrobial biofilm caries model (transverse microradiography); set-up: species or system human; settings: for integrated mineral loss ΔZd / lesion depth LD: twice daily 10 min pulses, mean ± SD
Protocol: as §1, §4, §5
Three hundred and sixty extracted human third molars were obtained under University of Melbourne ethics approval (HREC #1237616) and sterilized by exposure to 4.1 kGy of gamma radiation. Enamel blocks were cut from the teeth with approximately 6×3×3 mm dimensions using a water-cooled diamond blade saw (Minitom, Struers) and polished using a RotoPol/RotoForce lapping instrument with 1200, 2400, 4000 grit lapping papers (Struers) and 3 and 1 μm diamond polishing pastes (Struers). The blocks were positioned in custom made CDFF pans at a depth of 100 μm and sealed in place with yellow sticky wax (Kemdent) and sterilized by exposure to 4.1 kGy of gamma radiation.
Transverse microradiography was carried out essentially as described previously [Shen et al 2011]. […] The lesion depth (μm) was determined as the distance to the point at which the mineral content reaches 95% of the sound enamel value. The integrated mineral loss (IML), represented as ΔZd, was calculated by trapezoidal integration as the area between the sound-enamel densitometric profile and that of the demineralized enamel densitometric profile in vol % min·μm.

[4] = system: Streptococcus mutans Ingbritt; assay: Six species polymicrobial biofilm in constant-depth film fermenter, species composition: S. mutans; assay type: cell-based; settings: 19 days; mean ± standard deviation; n = 5-21
Protocol: as §1, §2, §3

[5] = system: Streptococcus sanguinis (NCTC 7863); assay: Six species polymicrobial biofilm in constant-depth film fermenter, species composition: S. sanguinis; assay type: cell-based
Protocol: as §1, §4, §5, §6, §3

[6] = system: Veillonella parvula (ATCC 17745); assay: Six species polymicrobial biofilm in constant-depth film fermenter, species composition: V. parvula; assay type: cell-based; settings: 19 days; mean ± standard deviation; n = 5-21
Protocol: as §1, §2, §3

[7] = system: Fusobacterium nucleatum (ATCC 10953); assay: Six species polymicrobial biofilm in constant-depth film fermenter, species composition: F. nucleatum; assay type: cell-based
Protocol: as §1, §4, §5
Planktonic and loosely attached bacterial cells were firstly removed from the enamel blocks by light washing with 100 μL ASM. To harvest the biofilm cells on each block, the surface was scraped with a sterile scraper with 1 mL of ASM. The biofilm bacterial cells were sedimented by centrifugation (10,000 g, 10 min), the supernatant carefully decanted and the cell pellets stored at −80° C. until required for DNA extraction. The enamel blocks were then used for sectioning and microradiography.
For each timepoint, DNA was extracted separately from 8-9 enamel blocks using PowerLyzer® PowerSoil® DNA Isolation Kits (MoBio Laboratories) following the manufacturers “Vacuum Protocol” with a Precellys® bead homogeniser (Bertin Technologies). Samples were quantified using a Qubit™ dsDNA HS assay kit (Life Technologies) before being stored at −80° C.
The Ion Amplicon Library Preparation Fusion Method (Thermo Fisher Scientific), was adapted for amplification of the V4 region of the 16S rRNA gene. […]

[8] = system: polymicrobial biofilm; assay: Biofilm ion analyses (calcium, phosphorous, tin; ICP-MS)
Protocol: To model supragingival plaque six representative oral bacterial species, Streptococcus sanguinis (NCTC 7863), Streptococcus mutans Ingbritt, Actinomyces naeslundii (NCTC 10301), Veillonella parvula (ATCC 17745), Lactobacillus casei (NCDO 161) and Fusobacterium nucleatum (ATCC 10953) (Table 5) were cultured as a polymicrobial biofilm on a human enamel substratum in a constant-depth film fermenter (CDFF; Cardiff University, UK). […] The CDFF contained 15 removable polytetrafluoroethylene (PTFE) pans on a circular platform that was rotated at a constant speed of three rpm. […] These treatments were compared with the control in which the test solution was replaced with ASM. […] The first pulse started 30 min prior to the first sucrose pulse of the morning and the second started 3 h 30 min after the final sucrose pulse of the day. Calcium, phosphorous and tin content of polymicrobial biofilm samples were determined by inductively-coupled mass spectrometry essentially as described previously [[…] et al 2005].

[9] = 19 days, mean ± standard deviation, n = 5-21

[F][Sn][F] [SnF2, stannous fluoride, reference compound]
A. naeslundii as a percentage of total bacteria in the biofilm [1, 9]: 5.54 ± 1.74^abc % | change in abundance of A. naeslundii relative to the control (in words) ([1]; twice daily treatment, day 19): significantly reduced | L. casei as a percentage of total bacteria in the biofilm [2]: 10.67 ± 6.92^cd % | integrated mineral loss ΔZd ([3]; Day 6): 636.7 ± 129.4 vol % min · μm | lesion depth LD ([3]; Day 6): 17.6 ± 1.2^c μm | integrated mineral loss ΔZd ([3]; Day 12): 1352.1 ± 147.3^bde vol % min · μm | lesion depth LD ([3]; Day 12): 37.1 ± 5.3^bdf μm | integrated mineral loss ΔZd ([3]; Day 19): 2096.3 ± 66.7^ae vol % min · μm | lesion depth LD ([3]; Day 19): 46.1 ± 4.7^be μm | rate of demineralization ([3]; between day 6 and day 19): 112.1 vol % min·μm/day | reduction in rate of demineralization relative to control ([3]; between day 6 and day 19, twice daily exposure): 50.2% and 50% | S. mutans as a percentage of total bacteria in the biofilm [4]: 59.82 ± 4.59^a % | S. sanguinis as a percentage of total bacteria in the biofilm [5, 9]: 17.47 ± 3.44^a % | change in abundance of S. sanguinis relative to the control (in words) ([5]; twice daily treatment, day 19): significantly increased | V. parvula as a percentage of total bacteria in the biofilm [6]: 6.50 ± 1.48^b % | F. nucleatum as a percentage of total bacteria in the biofilm [7, 9]: 0.02 ± 0.01^cd % | change in abundance of F. nucleatum after treatment relative to the control (increase) ([7]; day 19, FIG. 5B): −2% | increase in calcium in the biofilm relative to the control ([8]; ICP-MS): two-fold | increase in phosphorous in the biofilm relative to the control ([8]; ICP-MS): two-fold | peak stannous concentration in the biofilm ([8]; ICP-MS): 1.0 nmol/mg biofilm wet weight | Sn accumulated in the polymicrobial biofilms, concentration ([8]; during SnF2 treatment): ≤ 119 ppm
